Measurements from ChEMBL document CHEMBL3763135, “Synthesis and evaluation of thiophene-based guanylhydrazones (iminoguanidines) efficient against panel of voriconazole-resistant fungal isolates” (Bioorg Med Chem, 2016).
Values after ≈ are worked out from the molar mass of the structure shown. Active and inactive are the calls of the source. The rule behind the calls is not given here.

Tests used:
[1] = Induction of membrane damage in PC/PS liposome assessed as calcein release at MIC after 30 mins by fluorescence-based liposome leakage assay; type: functional
[2] = Hemolytic effect in sheep RBC assessed as release of hemoglobin at cytotoxic IC50 after 1 hr; type: cell-based, Ovis aries, Erythrocyte; details: sheep red blood cells, read-out: Activity
[3] = test system: Candida albicans; assay: Induction of DNA intercalation with Candida albicans genomic DNA at 25 ug/ml after 12 hrs by ethidium bromide staining based gel electrophoresis method
[4] = test system: Candida parapsilosis; assay: Antibiofilm activity against Candida parapsilosis C27 assessed as disruption of preformed biofilm after 24 hrs by concanavalin A-FITC-staining based fluorescence microscopic analysis; type: functional
[5] = test system: Pichia kudriavzevii; assay: Antibiofilm activity against Pichia kudriavzevii ATCC 34135 assessed as disruption of preformed biofilm after 24 hrs by concanavalin A-FITC-staining based fluorescence microscopic analysis; type: functional
[6] = test system: MRC5; assay: Cytotoxicity against human MRC5 cells after 48 hrs by MTT assay; type: cell-based; details: MRC5, 48 h
[7] = test system: Microsporum canis; assay: Antifungal activity against Microsporum canis DMT2 by broth dilution method; type: functional
[8] = test system: Aspergillus fumigatus; assay: Antifungal activity against Aspergillus fumigatus ATCC 13073 by broth dilution method; type: functional
[9] = test system: Candida albicans; assay: Antifungal activity against Candida albicans CA5 by broth dilution method; type: functional
[10] = test system: Pichia kudriavzevii; assay: Antifungal activity against Candida krusei ATCC 34135 by broth dilution method; type: functional
[11] = test system: Candida albicans; assay: Antifungal activity against Candida albicans ATCC 10231 by broth dilution method; type: functional
[12] = test system: Trichophyton mentagrophytes; assay: Antifungal activity against Trichophyton mentagrophytes DMT4 by broth dilution method; type: functional
[13] = test system: Candida albicans; assay: Antibiofilm activity against Candida albicans assessed as inhibition of Spider medium-induced hyphae formation at sub-MIC after 24 hrs by propidium iodide and FITC-conjugated concanavaline A staining based fluorescence microscopy; type: functional, organism-based
[14] = test system: Fusarium oxysporum; assay: Antifungal activity against Fusarium oxysporum AB18 by broth dilution method; type: functional
[15] = test system: Candida albicans; assay: Antibiofilm activity against Candida albicans ATCC 10231 assessed as disruption of preformed biofilm after 24 hrs by concanavalin A-FITC-staining based fluorescence microscopic analysis; type: functional
[16] = Hemolytic effect in sheep RBC assessed as release of hemoglobin at MIC after 1 hr; type: ADME, cell-based, Ovis aries, Erythrocyte; details: sheep red blood cells, read-out: Activity
[17] = test system: Candida parapsilosis; assay: Antifungal activity against Candida parapsilosis C27 by broth dilution method; type: functional; details: Lodderomyces parapsilosis

Row | Molecule | Activity [1] | hemolysis at 1 h [2] | Activity [3] | MBEC [4] | MBEC [5] | IC50 [6] | MIC [7] | MIC [8] | MIC [9] | MIC [10] | MIC [11] | MIC [12] | Activity [13] | MIC [14] | MBEC [15] | hemolysis at 1 h [16] | MIC [17]
1 | NYSTATIN | 21% | – | – | – | – | – | – | – | – | – | – | – | – | – | – | – | –
2 | Cl.N#Cc1ccc(-c2ccc(/C=N/NC(=N)N)s2)cc1 | – | ≤ 10% | Active | 1000 µg/mL | >1000 µg/mL | 5 mg/L | 0.97 mg/L | 25 mg/L | 7.8 mg/L | 25 mg/L | 3.9 mg/L | 6.25 mg/L | Active | > 250 mg/L | 250 µg/mL | ≤ 10% | 12.5 mg/L
3 | O=Cc1ccc(-c2ccccc2)s1 | – | ≤ 10% | inactive | >1000 µg/mL | >1000 µg/mL | 50 mg/L (≈ 266 µM) | 250 mg/L (≈ 1330 µM) | 125 mg/L (≈ 664 µM) | 250 mg/L (≈ 1330 µM) | > 250 mg/L | 250 mg/L (≈ 1330 µM) | 250 mg/L (≈ 1330 µM) | Active | 250 mg/L (≈ 1330 µM) | >1000 µg/mL | ≤ 10% | > 250 mg/L
4 | Cl.N=C(N)N/N=C/c1ccc(-c2ccccc2)o1 | – | ≤ 10% | Active | 1000 µg/mL | 500 µg/mL | 20 mg/L | 1.56 mg/L | 125 mg/L | 15.6 mg/L | 50 mg/L | 7.8 mg/L | 6.25 mg/L | Active | 125 mg/L | 500 µg/mL | ≤ 10% | 50 mg/L
5 | Cl.N=C(N)N/N=C/c1ccc(-c2ccccc2)s1 | – | ≤ 10% | Active | >1000 µg/mL | >1000 µg/mL | 5 mg/L | 1.56 mg/L | 25 mg/L | 1.95 mg/L | 6.25 mg/L | 1.95 mg/L | 3.12 mg/L | Active | 62.5 mg/L | 1000 µg/mL | ≤ 10% | 6.25 mg/L
6 | Cl.N=C(N)N/N=C/c1ccc(-c2ccc(F)cc2)s1 | – | ≤ 10% | Active | >1000 µg/mL | >1000 µg/mL | 4 mg/L | 0.97 mg/L | 25 mg/L | 1.95 mg/L | 6.25 mg/L | 3.9 mg/L | 1.56 mg/L | Active | > 250 mg/L | >1000 µg/mL | ≤ 10% | 6.25 mg/L
7 | COc1ccc(-c2ccc(/C=N/NC(=N)N)s2)cc1.Cl | – | ≤ 10% | Active | 1000 µg/mL | 1000 µg/mL | 5 mg/L | 0.97 mg/L | 25 mg/L | 3.9 mg/L | 6.25 mg/L | 7.8 mg/L | 3.12 mg/L | Active | > 250 mg/L | 500 µg/mL | ≤ 10% | 6.25 mg/L
